Assay results from US5413787A, “Bioparyl, a biological regulator, active against various pathologies” (priority 1988, dated 1995).

Experiments:
[1] = tested on: RNases from patients affected by cancers, auto-immune diseases or viral pathologies; test: Effect of iron on in vitro activity of RNases from patients; assay type: biochemical, human; conditions: cancers (leukemia, solid cancers)
Description: (§1) Bioparyl dissolved in distilled water (pH 7.0, 5 mg/ml) is used (0.01 to 0.05 ml). Incubation medium (0.15 ml final volume) contains: Tris-HCl buffer, 10^-2 M pH 7.60: 0.05 ml; ^3 H-RNA (r-RNA or 4 S RNA), 100 μg, 15,000 CPM: 0.05 ml; ten-times diluted plasma: 0.01 to 0.05 ml. After incubation at 36° C. for 10 min. (water bath) (generally necessary conditions but that may vary in case of necessity), the reaction is stopped by addition of 3 ml trichloroacetic acid (TCA) (5%); the tubes are cooled in order to assure a good precipitation of proteins and undegraded ^3 H-RNA.
(§2) The precipitate is filtered on glass millipore (GF/C, Whatman), washed with 5% TCA solution then with 95° ethyl alcohol. The filters are dried and the radioactivity determined in a scintillation spectrometer. The results are expressed as percent of non-degraded radioactive RNA, the radioactivity of initial intact RNA being taken as 100%.
(§3) One knows that the RNases enable the furnishing of the RNA primers necessary for the replication of DNA, and that the primers accepted by DNA from healthy tissues are not the same as the primers required for replication of DNA from cancer tissues. Thus, regulation of RNases (enzymes able to provide primers in cells)is a capital phenomenon in carcinology and virology.

[2] = tested on: RNases in plasma of healthy persons; test: Effect of iron on in vitro activity of RNases of healthy persons; assay type: biochemical, human; conditions: FIG. 5
Description: as §1, §2, §3

[3] = tested on: RNases from human fibrosis skin; test: In vitro RNase activity of radiation-induced skin fibrosis extract (r-RNA degradation); assay type: biochemical; conditions: FIG. 7
Description: Sample of skin fibrosis induced by radiation has been broken in a mortar (4° C.) in the presence of Tris-HCl buffer 0.02M containing 0.06M KCl and 0.001M MgCl2. Final volume: 1.5 ml. The activity of RNases present in this extract has been tested with 4 S RNA and ribosomal RNA (r-RNA); 0.01; 0.02; 0.03 and 0.04 ml of enzyme extract were incubated in the presence of radioactive ^3 H-r-RNA or ^3 H-4 S RNA. Incubation time: 15 min. at 36° C. The results are illustrated in FIG. 7. Degradation of labelled RNA is linear in function of increasing concentration of the extract. r-RNA is more rapidly degraded than 4 S RNA. […] Ferric iron (FeCl3), at low concentrations, stimulates r-RNA degradation; but at higher concentrations it inhibits it.

[Cl][Fe]([Cl])[Cl] [Ferric iron]
in vitro activity of RNases from patients under ferric iron [1]: strongly accelerates | in vitro activity of RNases of healthy persons under iron [2]: without effect | r-RNA degradation by fibrosis skin RNases, FeCl3 higher concentrations ([3]; at higher concentrations): inhibits | r-RNA degradation by fibrosis skin RNases, FeCl3 low concentrations ([3]; at low concentrations): stimulates
